Assays:
[1] = test system: vesicular stomatitis virus (VSV); format: cell-based; conditions: human 2fTGH cells, IFN-α 25-100 U/ml, titer 24 hr after treatments
2fTGH cells = format: cell-based, human; conditions: inhibitor pre-treatment 1 h, IFN-α pulse 1-2 h, read 24 h later
[2] = test system: IFNAR1 Ser535 phosphorylation; experiment: IFN-α-induced Ser535 (degron) phosphorylation of IFNAR1 in cells, IP-immunoblot with anti-pS535; format: cell-based, human; conditions: 293T cells, inhibitor pre-treatment, IFN-α
Method: (§1) Immunoprecipitation and immunoblotting procedures are described elsewhere (Fuchs et al, 1999, Oncogene 18:2039-2046). Protein degradation was carried out by cycloheximide (CHX, used at 20 μg/ml) chase. IFNAR1 internalization assay was carried out using the Fluorescence-based assay as described elsewhere (Kumar et al., 2007, J Cell Biol 179:935-950). BAY 43-9006 was obtained as a gift. Recombinant human IFN-a2 (Roferon) was purchased from Roche. Other reagents or inhibitors were purchased from commercial vendors.
(§2) Antibodies against Flag, GST and j3-actin (Sigma), HA (12CA, Roche), CK1α, PICD1/2 (PKCμ), PKD3 (PKCν), Tyk2, intracellular domain of hIFNAR1 and PKR, (Santa Cruz), anti-pan-phospho-tyrosine (4G10), phospho-Stat1 and Stat1 (Cell signaling), phospho-S710 of PKD2 (Biosource), PKD2 (Bethyl Laboratories), mIFNAR1 (Leinco) and ubiquitin (FK2, Biomol) were purchased. AA3, GB8 and EAl2 antibodies which recognize endogenous IFNAR1 (Goldman et al., 1999) and antibodies against IFNAR1 phosphorylated on Ser535 (pS535; (Kumar et al., 2004, J Biol Chem 279:46614-46620)) were described previously. Secondary antibodies conjugated to horseradish peroxidase were purchased from Chemicon and LI-COR. Immunoprecipitation and immunoblotting procedures are described elsewhere (Fuchs et al, 1999, Oncogene 18:2039-2046). Protein degradation was carried out by cycloheximide (CHX) chase in the presence of CHX (20 μg/ml). Immunoblot detection and quantification were carried out using the LI-COR's Odyssey Infrared Imaging System.

Stat1 = Stat1 tyrosine phosphorylation in response to IFN-α, immunoblot; format: cell-based, human; conditions: HeLa cells, inhibitor pre-treatment 1 h, IFN-α pulse 15 min
protein kinase D (PKD) = conditions: literature (Gschwendt et al., 1996; Sharlow et al., 2008); cited from earlier work
IFNAR1 = experiment: Cycloheximide chase of IFNAR1 degradation; format: cell-based, human; conditions: HeLa cells, CHX chase in the presence of IFN-α
Method: as §1
as §2, with “Immunoprecipitation and immunoblotting procedures are described elsewhere (Fuchs et al, 1999, Oncogene 18:2039-2046). Protein degradation was carried out by cycloheximide (CHX) chase in the presence of CHX (20 μg/ml).” left out

Structure (SMILES)	protective effect of IFN-α against VSV (viral titer) [1]	ISRE-driven luciferase transcriptional activity (2fTGH cells)	ligand-induced Ser535 phosphorylation of endogenous IFNAR1 [2]	ligand-induced phosphorylation of Stat1 (Stat1)	inhibition of / specificity against PKD (protein kinase D (PKD))	rate of proteolytic turnover (ligand-stimulated degradation) of IFNAR1 (IFNAR1)
O.O.O.O.O.O.O.O.O.O=C([O-])[C@@H]1[O][Sb](=[O])([O][Sb]2(=[O])[O][C@H]([C@H](O)CO)[C@H](O)[C@H](C(=O)[O-])[O]2)[O][C@H]([C@H](O)CO)[C@@H]1O.[Na+].[Na+].[Na+] (stereo partly drawn) [SSG]	potentiates the protective effect	–	–	–	–	–
O=C1NCCCc2c1oc1ccc(O)cc21 [CID755673]	–	robustly augmented	significant inhibition	noticeably prolonged	high specificity	appreciable decrease
